We go through one substance from patent US20080299130A1, “Methods And Compositions For The Treatment Of Ocular Neovascularization” (UNIVERSITY OF KENTUCKY RESEARCH FOUNDATION, priority 2004, published 2008).

In this assay the test system is laser-induced CNV. The experiment in a line: Laser-induced choroidal neovascularization (CNV) volume after intravitreous injection. It counts as in vivo, mouse. The method, then:
Laser photocoagulation (532 nm, 200 mW, 100 ms, 75 μm; OcuLight GL, Iridex, Mountain View, Calif.) was performed on both eyes of each animal by a single individual masked to genetic identity. Laser spots (volume studies: 3/eye; angiography: 4/eye; protein analyses/flow cytometry: 12/eye) were applied in a standardized fashion around the optic nerve, using a slit lamp delivery system and a cover slip as a contact lens. The morphological endpoint of the laser injury was the appearance of a cavitation bubble, a sign thought to correlate with the disruption of Bruch's membrane.
Two weeks after laser injury, eyes were enucleated and fixed with 4% paraformaldehyde (PFA) for 30 minutes at 4° C. […]
Flat mounts were examined with a scanning laser confocal microscope (TCS SP, Leica, Heidelberg, Germany). […] The area of CNV-related fluorescence was measured by computerized image analysis with the microscope software (TCS SP; Leica). […]
Because the probability of each laser lesion developing CNV is influenced by the group to which it belongs, the mouse, the eye, and the laser spot, the mean lesion volumes were compared using a linear mixed model with a split plot repeated measures design, as previously described (Sakurai, et al., (2003), Invest Opthalmol Vis Sci 44, 2743-2749; Sakurai et al., (2003), Invest Opthalmol Vis Sci 44, 3578.3585). […] Statistical significance was determined at the 0.05 level. […]

For “Recombinant MCP-1: recombinant mouse MCP-1 protein (Ccl-2)”, where the note is “MCP-1 knock out mice (FIG. 5, FIG. 6)”, the “Effect on CNV” value was “restores CNV”. The “CNV restored, % of control” value (recombinant MCP-1 0.55 ng given with anti-VEGF-A antibody, n=6, P=0.82) is on record as 95.7±13.0 % of control.
